Assay: Acute toxicity (LD50) on intraperitoneal injection into mice
Details: mouse, in vivo, ip

## CC(C)OC(=O)CNC(=O)[C@H](CS)NC(=O)CC[C@H](N)C(=O)O [isopropyl ester, isopropyl y-L-glutamyl-L-cysteinylglycinate]
  LD50: ~5300 mg/kg

Source: patent EP0249401A1, “Antianemic agent” (YAMANOUCHI PHARMACEUTICAL CO. LTD., priority 1986, dated 1987)
